Measurements reported in US5422249A, “Process for the manufacture of thrombin inhibitors” (Ciba-Geigy Corporation, priority 1984, dated 1995).

Experiments:
[1] = tested on: other enzymes of the blood coagulation cascade; test: action on other enzymes/proteinases of the blood coagulation system; format: biochemical; conditions: desulphatohirudin
toxicity in rats = format: in vivo; conditions: dose 1 g/kg
[2] = tolerability (hypersensitivity, allergic reactions, harmlessness); conditions: in vivo
[3] = tested on: thrombin from human plasma; test: thrombin-inhibition test with Chromozym TH; format: biochemical; conditions: for Thrombin inhibition (%): Experimental conditions No. 1, Table 1
Procedure: The cells (50 ml of the growing culture) are harvested and resuspended in 5 ml of a solution of 50 mM tris.HCl (pH 8.0) and 30 mM NaCl. Subsequently, the suspension is shaken with 5 g of cooled glass beads (diameter 0.5 mm), or by the addition of lysozyme (Boehringer), final concentration 1 mg/ml, at intervals during 30 to 45 minutes on a Multi-Tube Vortexer at high intensity. 0.5 ml of 2% acetic acid are added to 0.5 ml of the mixture which is then centrifuged at 12,000 revs/min for 20 minutes at 4° C. The supernatant solution is examined for hirudin activity (inhibition of thrombin). The thrombin-inhibition test is carried out as follows:
The test is based on the determination of the enzymatic removal of p-nitroaniline from the substrate Chromozym TH (tosyl-glycyl-prolyl-arginine-4-nitroanilide-acetate). […] The reaction time is 2 hours at 37° C. in the incubation chamber. For the test, 20 μl of the solution to be determined is diluted with 30 μl of filling buffer (0.2M tris.HCl pH 7.5, 1M NaCl, 100 μg/ml bovine serum albumin), and 20 μl of enzyme solution [10 mg of lyophilised thrombin from human plasma (Boehringer) dissolved in 1 ml of bidistilled water and diluted approximately 1:400 with the above filling buffer] and 150 μof substrate solution [[…] chromozym TH (Boehringer) dissolved in 4 ml of bidistilled water and diluted 1:15 with the above filling buffer] are added. All solutions are measured against a blank solution consisting of 70 μl of filling buffer (see above) and 150 μl of substrate solution and against an enzyme control solution consisting of 50 μl of filling buffer, 20 μl of enzyme solution and 150 μl of substrate solution. […] The thrombin inhibition (as a %) of the samples is calculated in accordance with the following formula: [formula]

[4] = tested on: other enzymes of the blood coagulation cascade; conditions: natural hirudin; cited from earlier work
[5] = intravenously to dogs, even in high doses; cited from earlier work
[6] = tested on: experimental thrombosis (induced either by stasis or by the injection of thrombin), endotoxin shock, DIC; conditions: cited from earlier work

Substance | specificity to thrombin / interactions with other proteinases of the blood coagulation system [1] | active toxicity (toxicity in rats) | hypersensitivity reactions or allergic reactions [2] | thrombin inhibition ([3]; HPLC fraction from S. cerevisiae GRF18/pJDB207R/PH05-HIR, conditions as in Example 26a) [%] | Thrombin inhibition (%) ([3]; RP-HPLC fractions) | Thrombin inhibition (%) ([3]; RP-HPLC fractions, listed as Fr 14) | Thrombin-inhibition % ([3]; RP-HPLC fractions, Experimental conditions No. 2, Table 2) [%] | inhibition of other enzymes of the blood coagulation cascade [4] | effect on heart rate, respiration, blood pressure, thrombocyte count, fibrinogen and haemoglobin [5] | direct comparison tests with heparin ([6]; in vivo) | efficacy in experimental thrombosis, endotoxin shock and DIC ([6]; rats, pigs and dogs)
desulphatohirudin | completely specific to thrombin | no toxic effects | no hypersensitivity reactions or allergic reactions | 89.6 | 86 | 79 | 97.3 ± 2 | – | – | – | –
hirudin | – | – | – | – | – | – | – | not inhibited | No effect | superior to heparin | effective
